Test: DPPH radical scavenging antioxidant test
Settings: 517 nm; for Inhibition (radical scavenging inhibition): 0.2 mL DPPH (0.75 mM), compound 3 μM in ethanol, 30 minutes in the dark
Protocol: The antioxidant activity of 6′-(4-bromophenyl)-2′-methoxy-3,4′-bipyridine-3′-carbonitrile was investigated by 2,2-diphenyl-1-picrylhydrazyl (DPPH) in vitro tests that employ vitamin C as the positive control.
The antioxidant properties of the 6′-(4-bromophenyl)-2′-methoxy-3,4′-bipyridine-3′-carbonitrile compound were studied by adding 0.2 mL DPPH (0.75 mM)) to 6′-(4-bromophenyl)-2′-methoxy-3,4′-bipyridine-3′-carbonitrile (3 μM) (4) in ethanol. After 30 minutes of incubation in the dark, the absorbance was read against a blank at 517 nm. Ascorbic acid (vitamin C) was used as standard antioxidants (positive control). A blank sample was prepared by 0.2 mL of DPPH in 3 mL ethanol. A negative control sample was run using ethanol instead of the sample. The radical scavenging inhibition was calculated using the following equation: […]
The antioxidant activity for the synthesized compound is listed in Table 1, using Vitamin C as a reference.

## COc1nc(-c2ccc(Br)cc2)cc(-c2cccnc2)c1C#N [Product 4, 6′-(4-bromophenyl)-2′-methoxy-3,4′-bipyridine-3′-carbonitrile]
  Inhibition (radical scavenging inhibition): 50%
DPPH in vitro test, vitamin C as positive control
  antioxidant potential to vanish the DPPH radical colors, compared to vitamin C: high potential as an antioxidant compared to vitamin C

## O=C1O[C@H]([C@@H](O)CO)C(O)=C1O [vit c, Ascorbic acid, reference compound]
  Inhibition (radical scavenging inhibition): 74%

— patent US11974995B1, “6′-(4-bromophenyl)-2′-methoxy-3,4′-bipyridine-3′-carbonitrile as an antioxidant compound” (KING FAISAL UNIVERSITY, priority 2023, dated 2024)
